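Grown in 96-well plates, cells were treated for 48 hours with each compound at five concentrations. Insufficient inhibition: endpoint recorded as highest concentration tested. Here, GI50 denotes the concentration required for 50% inhibition of growth. The concentration for full growth arrest is given as TGI.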
What was measured:
Experiment in all cases: inhibition of tumour cell growth, NCI panel, 48 h
MALME-3M melanoma = test system: MALME-3M melanoma
OVCAR-4 ovarian = test system: OVCAR-4 ovarian
CCRF-CEM leukemia = test system: CCRF-CEM leukemia
UACC-257 melanoma = test system: UACC-257 melanoma
UO-31 renal = test system: UO-31 renal
SF-539 CNS = test system: SF-539 CNS
UACC-62 melanoma = test system: UACC-62 melanoma
RXF 393 renal = test system: RXF 393 renal
HCT-116 colon = test system: HCT-116 colon
SR leukemia = test system: SR leukemia

| Compound | TGI (MALME-3M melanoma) | TGI (OVCAR-4 ovarian) | TGI (CCRF-CEM leukemia) | TGI (UACC-257 melanoma) | TGI (UO-31 renal) | TGI (SF-539 CNS) | TGI (UACC-62 melanoma) | TGI (RXF 393 renal) | GI50 (HCT-116 colon) | TGI (HCT-116 colon) | GI50 (UACC-257 melanoma) | GI50 (UO-31 renal) | GI50 (UACC-62 melanoma) | GI50 (SF-539 CNS) | GI50 (SR leukemia) | TGI (SR leukemia) | GI50 (RXF 393 renal) | GI50 (MALME-3M melanoma) | GI50 (OVCAR-4 ovarian) | GI50 (CCRF-CEM leukemia) |
| --- | --- | --- | --- | --- | --- | --- | --- | --- | --- | --- | --- | --- | --- | --- | --- | --- | --- | --- | --- | --- |
| O=C(O)CNS(=O)(=O)c1ccc(NC(=O)c2cccc([N+](=O)[O-])c2)cc1 | > 100 µM | > 100 µM | > 100 µM | > 100 µM | > 100 µM | > 100 µM | > 100 µM | > 100 µM | – | – | – | – | – | – | – | – | – | – | – | – |
| CN(C)c1ccc(/C=N/Nc2ccc(-c3nc4ccccc4[nH]3)cc2)cc1 | – | – | – | 25.8 µM | 23.8 µM | – | 24.3 µM | – | 15.1 µM | > 50 µM | 9.81 µM | 7.44 µM | 8.32 µM | – | – | – | – | – | – | – |
| COS(=O)CCOC(=O)c1ccccc1SSc1ccccc1C(=O)OCCS(=O)OC (stereo not drawn) | 63.7 µM | 34.9 µM | > 100 µM | 38.8 µM | 43.5 µM | 65.6 µM | 51.5 µM | 28 µM | – | – | – | – | – | – | – | – | – | – | – | – |
| ClCc1ccc(Cn2cnc3ncnc(Cl)c32)cc1 | – | – | – | 3.48 µM | 66.7 µM | 3.74 µM | 12 µM | 4.14 µM | – | – | 1.57 µM | 4.82 µM | 2.5 µM | 2.08 µM | 0.822 µM | 2.7 µM | 1.67 µM | – | – | – |
| CC(C)c1cc2c(O)c(c1)Cc1cc(C(C)C)cc(c1O)Cc1cc(C(C)C)cc(c1O)Cc1cc(C(C)C)cc(c1O)Cc1cc(C(C)C)cc(c1O)Cc1cc(C(C)C)cc(c1O)C2 | > 100 µM | > 100 µM | > 100 µM | > 100 µM | > 100 µM | > 100 µM | > 100 µM | > 100 µM | – | > 100 µM | – | – | – | – | – | – | – | – | – | – |
| O=C1C=Cc2noc3cccc1c23 | 25.7 µM | 4.82 µM | 5.35 µM | 26.4 µM | 15.3 µM | 30.2 µM | 13.4 µM | 5.67 µM | – | 4.47 µM | – | – | – | – | – | – | – | – | – | – |
| Cc1nc(Nc2ccc([N+](=O)[O-])cc2)sc1C(=O)/C=C/c1ccc(N(C)C)cc1 | > 100 µM | – | > 100 µM | > 100 µM | > 100 µM | > 100 µM | > 100 µM | > 100 µM | – | – | – | – | – | – | – | – | – | – | – | – |
| Clc1cccc(C2SCc3nc4ccccc4n32)c1Cl (stereo not drawn) | – | 27 µM | 48.2 µM | 28.5 µM | 25.8 µM | 32.5 µM | 34.3 µM | 29.6 µM | – | 33.5 µM | – | – | – | – | – | – | – | – | – | – |
| CC1=C[C@H]2C[C@@]3(C)O[C@@H]([C@]4(C)CC[C@H]([C@@H](C)C(=O)O)OO4)CC3C(C)(C)[C@H]2CC1 (stereo partly drawn) | 2.22 µM | 2.9 µM | – | 3.17 µM | 2.59 µM | 3.57 µM | – | 2.53 µM | – | 3.78 µM | – | – | – | – | – | – | – | – | – | – |
| O=C(O)c1oc2ccc([N+](=O)[O-])c3c2c1CCC3 | > 100 µM | > 100 µM | – | > 100 µM | > 100 µM | > 100 µM | – | > 100 µM | – | > 100 µM | – | – | – | – | – | – | – | – | – | – |
| Nc1ccccc1C#Cc1ccccc1C#CCCCCO | 44.4 µM | 70.6 µM | 78.7 µM | 50.9 µM | 54.8 µM | 42.8 µM | 32.5 µM | 26.1 µM | 12.9 µM | 26.6 µM | 19.7 µM | 20.3 µM | 11.9 µM | 19 µM | – | – | 5.73 µM | 12.4 µM | 34.1 µM | 23.2 µM |
| C=C(C)[C@@H]1CC[C@]2(C#N)CC[C@]3(C)[C@H](CC[C@@H]4[C@@]5(C)CCCNC(C)(C)[C@@H]5CC[C@]43C)[C@@H]12 | 3.2 µM | 4.44 µM | 9.38 µM | 4.3 µM | 7.92 µM | 3.11 µM | 3.6 µM | 3.16 µM | 1.75 µM | 3.19 µM | 2.27 µM | 2.41 µM | 1.96 µM | 1.67 µM | – | – | 1.7 µM | 1.61 µM | 2.16 µM | 2.73 µM |
| C=C1C(=O)C23C(CC(OC(C)=O)C1[C@@H]2OC(C)=O)C1(C)C(OC(C)=O)CCC(C)(C)C1C[C@@H]3OC(C)=O (stereo partly drawn) | 3.01 µM | 3.41 µM | – | 3.14 µM | 3.19 µM | 3.16 µM | 3.72 µM | 0.831 µM | – | 2.97 µM | – | – | – | – | – | – | – | – | – | – |
| COc1cc(Nc2ncc(-c3ccccc3)o2)cc(OC)c1OC | > 25 µM | > 25 µM | > 25 µM | > 25 µM | > 25 µM | > 25 µM | > 25 µM | 17.4 µM | 1.45 µM | > 25 µM | > 15.9 µM | 1.84 µM | 2.24 µM | 1.53 µM | – | – | 0.77 µM | 6.29 µM | 1.05 µM | 7.32 µM |
| COc1ccc2c(c1)[n+]([O-])c(-c1ccc(Cl)c(Cl)c1)c(N)[n+]2[O-] | 58.5 µM | > 100 µM | – | 46.4 µM | > 100 µM | 68.6 µM | – | – | – | > 100 µM | – | – | – | – | – | > 100 µM | – | – | – | – |
| Cc1ccc(NC(=O)CCC(=O)C(C#N)c2ccc(Cl)cc2)cc1C (stereo not drawn) | > 100 µM | > 100 µM | > 100 µM | > 100 µM | > 100 µM | > 100 µM | > 100 µM | > 100 µM | – | > 100 µM | – | – | – | – | – | – | – | – | – | – |
| COc1cc(C(N)=O)c(OC)c(OC)c1OC | – | > 100 µM | > 100 µM | – | > 100 µM | > 100 µM | > 100 µM | > 100 µM | – | > 100 µM | – | – | – | – | – | – | – | – | – | – |
